Data taken from US4946860A, “Benzothiopyranyl derivatives as HMG-CoA reductase inhibitors” (Rorer Pharmaceutical Corporation, priority 1989, dated 1990).

Tests used:
HMGR enzyme = test: HMGR Screen (solubilized rat liver microsomal HMG-CoA reductase, [14C] HMG-CoA); format: biochemical; conditions: 20 μM HMG-CoA, pH 7.0, 37° C.
Description: (§1) The utility of the claimed compounds is measured by the test methods described hereunder. […] 1976, Biochemistry.
The first method used (designated HMGR Screen) was as follows: Male rats were acclimated to an alternate 12 hour light-dark cycle for a period of 2-3 weeks. The animals, weighing 180-230g, were fed ad libitum a rat chow containing 2% cholestyramine for 5 days prior to sacrifice at the mid-dark period. Liver microsomes were prepared and HMGR enzyme was solubilized from the microsomes by freeze-thaw manipulation in high ionic strength buffer. The enzyme preparation was stored at -80° C. in 300 μl portion samples. Prior to use, the enzyme was activated at 37° C. for 30 minutes in a reaction mixture. The reaction mixture was contained in a volume of 240 μl1:0.14M potassium phosphate buffer (pH 7.0); 0.18M KCl; 3.5 mM EDTA; 10 mM dithiothreitol; 0.1 mg/ml BSA; 30,000 cpm of [^14 C] HMG-CoA; 20 μM HMG-CoA; and 200 μg of solubilized enzyme with and without inhibitors (in 10 μl DMSO). After 5 minutes incubation at 37° C. the reaction was initiated with 0.2 mM NADPH. The final assay volume was 300 μl. After 10 minutes the reaction mixture was terminated with 100 μl of 1N HCl. […] After the addition of 10 ml of Aquasol , radioactivities of the samples were measured in a scintillation counter.

cholesterol synthesis = test: Ex-Vivo Non-Fasted (cholesterol synthesis from [14C] sodium acetate in liver slices of orally dosed fed rats); design: species or system rat; conditions: oral in 0.5% methocel, livers removed two hours after dosing, dose not given
Description: as §1
The second method used (designated Ex-Vivo Non-Fasted and Ex-Vivo Fasted) used was as follows: Rats of 170-210g were maintained on a low cholesterol diet for one week prior to use. Drugs were given orally in 0.5% methocel to both fed and fasted (fasted for 16 hours) rats. After one hour (fasted rats) and two hours (fed rats) the rats were decapitated and their livers removed and transferred to chilled oxygenated Kreb's-Ringer-bicarbonate buffer (pH 7.4). The livers were then chopped into 0.5 mm slices using a McIlwain tissue chopper, and were suspended in the same buffer. Aliquots of the suspension containing 100 mg tissue were pipetted to culture tubes which contained [^14 C] sodium acetate (2 μCi, 1 mM). The tubes were gassed with 95% O2 /5%CO2, capped and incubated at 37° C. in a shaking water bath at 150 oscillation/minute for two hours. The final assay volume was 1.0 ml. After incubation the reaction was stopped by the addition of 1.0 ml of 15% KOH in ethanol, and the internal standard ^3 H-cholesterol was added. The tubes were recapped and the samples were saponified at 75° C. for two hours with periodic mixing. […] After visualization with iodine the cholesterol spots were cut and counted with liquid scintillation fluid. […]

- IC50 (HMGR enzyme): 9.8 nM
Structure (SMILES): CC1(C)Sc2ccccc2C(c2ccc(F)cc2)=C1/C=C/[C@@H]1C[C@@H](O)CC(=O)O1 (relative stereo) [Example 1G]
- inhibited cholesterol synthesis (cholesterol synthesis): 43%
